We go through 2 molecules from patent US8618169B2, “Derivatives of N-phenylanthranilic acid and 2-benzimidazolone as potassium channel and/or neuron activity modulators” (Ramot at Tel-Aviv University Ltd., priority 2002, dated 2013).

The target in one assay is T1, KCNQ1 (Homo sapiens, UniProt P51787).
T1 construct: expressed in transfected cells; host or cells: Xenopus oocytes (cRNA microinjection)
Description: KCNQ1 current amplitude in Xenopus oocytes. The note with it: 50 μM, test potentials −50 to 0 mV, data not shown. The class given is cell-based. The method, then:
Briefly, two-electrode voltage-clamp measurements were performed 3-5 days following cRNA microinjection into oocytes. Oocytes were bathed in a modified ND96 solution containing (in mM): 96 NaCl, 2 KCl, 1 MgCl2, 0.1 CaCl2 and 5 HEPES titrated to pH=7.4 with NaOH. Whole-cell currents were recorded at room temperature (20° C.-22° C.) using a GeneClamp 500 amplifier (Axon Instruments, Foster City, Calif., USA). […] Current signals were filtered at 0.5 kHz and digitized at 2 kHz.
Data are expressed as mean±SEM of 5-8 separate experiments.
The current amplitude of the various channels was measured from a −80 mV holding potential.

A further assay has as its target T2, homomeric KCNQ3 (Homo sapiens, UniProt O43525).
T2 construct: expressed in transfected cells; host or cells: CHO cells
Description: Homomeric KCNQ3 channels expressed in CHO cells, patch-clamp. The note with it: 50 μM. Type of assay: cell-based. Background: The patch-clamp technique gives a direct electrical read-out from membranes.

The next assay deals with small DRG neurons. Description: Spiking activity of DRG neurons, current-clamp. The class given is cell-based, mouse. The method, then:
Dorsal root ganglion (DRG) neurons were dissected from 2-4 days-old ICR mice that were decapitated. DRGs were placed in Hank's balanced saline solution (HBSS) and were prepared by enzymatic dissociation. Briefly, cells were incubated for 30 minutes in 5 mg/ml dispase (Sigma), 2 mg/ml collagenase type 1A (Sigma) and 0.1 mg/ml DNase (Invitrogen/Gibco) in calcium and magnesium-free HBSS, and the ganglia were thereafter mechanically triturated with a firepolished glass Pasteur pipette. The ganglia were then centrifuged for 5 minutes at 80×g and resuspended in DMEM supplemented with 2 mM L-glutamine, 16.5 mM NaCO3, 6 g/l glucose, 5 ml penicillin/streptomycin and 10% fetal calf serum. For electrophysiological recording, dissociated neurons were plated on 13 mm glass coverslips previously coated with poly-D-lysine (1 mg/ml) and laminin (10 μg/ml) and were used after 2-6 days in culture.
For current measurements in CHO cells, recordings were performed 40 hours following transfection, using the whole-cell configuration of the patch-clamp technique [Hamill et al., Nature 294: 462-464 (1981)]. Signals were amplified using an Axopatch 200B patch-clamp amplifier (Axon Instruments, Foster City, Calif., USA), sampled at 2 kHz and filtered at 800 Hz via a 4-pole Bessel low pass filter. Data were acquired using pClamp 8.1 software (Axon Instruments, Foster City, Calif., USA) and an Elonex Pentium III computer in conjunction with a DigiData 1322A interface (Axon Instruments, Foster City, Calif., USA). The patch pipettes were pulled from borosilicate glass (Warner Instrument. Corp., Hamden, Conn., USA) with a resistance of 2-5 MΩ and were filled with (in mM): 130 KCl, 1 MgCl2, 5 K2ATP, 5 EGTA, 10 HEPES, adjusted with KOH at pH 7.4 (290 mOsm). The external solution contained (in [mM]): 140 NaCl, 4 KCl, 1.8 CaCl2, 1.2 MgCl2, 11 glucose, 5.5 HEPES, adjusted with NaOH at pH 7.4 (310 mOsm). Series resistances (3-13 MΩ) were compensated (75-90%) and periodically monitored. […]

In assay [1] the test system is hippocampal pyramidal neurons. Put plainly: Spontaneous EPSCs of hippocampal pyramidal neuron cultures, voltage-clamp. The class given is cell-based. On the procedure: To further determine the synaptic site of M-channel activation by Compound 6, its effects on spontaneous excitatory postsynaptic currents (EPSCs) that could be recorded from dense networks of hippocampal pyramidal neuron cultures was tested.
In FIGS. 30B and 30C, burst activity before (control), in the presence (Compound 6) and after (Wash) application of 5 μM (FIG. 30B) and 10 μM (FIG. 30C) Compound 6, as recorded at the voltage clamp mode is shown. In FIG. 30D, burst activity before (control) and in the presence of 25 μM Linopirdine is shown. In FIG. 30E, the normalized number of bursts appeared in 180 seconds time period for 5 μM (left panel), 10 μM (mid panel) of Compound 6 and 25 μM linopirdine (right panel) are shown. The holding potential was −70 mV. n=5-6.
Thus, using the voltage-clamp configuration of the patch-clamp technique, spontaneous EPSCs were isolated at −70 mV (holding potential) in the presence of 10 μM bicuculline and 10 μM picrotoxin to block GABAA receptor-mediated inhibitory postsynaptic currents. As is shown in FIG. 30A, under control conditions, the frequency of EPSCs is variable depending of the density of the hippocampal culture, ranging from 0.4 Hz to 2 Hz. […] However, the majority of the EPSCs measured at −70 mV under the experimental recording conditions are mediated by AMPA receptors as most of the currents are blocked by 10 μM NBQX, leaving only a small fraction EPSC sensitive to the NMDA receptor blocker DL-AP5 (FIG. 30A).

In the case of `Cc1ccc(Cl)c(Nc2ccccc2C(=O)O)c1Cl` [Compound 1, Meclofenamic acid], the “effect on homomeric KCNQ1 currents” value at KCNQ1 is recorded as “not enhanced”. Besides, the “leftward shift of the activation curve of KCNQ3 channels” value at homomeric KCNQ3 (CHO cells) is −15 mV. For the same molecule, the “increase of KCNQ3 current amplitude” value at homomeric KCNQ3 (stepped from −85 mV to −40 mV) came out at 120±4%. Further, at homomeric KCNQ3 (control 319.6±40.8 msec), the “τdeact of KCNQ3 with compound” value was found to be 317.2 ± 30.2 ms. At homomeric KCNQ3 (control −39.0±3.5 mV), the “V50 of KCNQ3 activation with compound” value is −54.0±2.0 mV.
For `O=C(Cc1ccccc1Nc1c(Cl)cccc1Cl)NCCOCCO` [Compound 6], the “effect on trains of evoked spikes” value with small DRG neurons (15 μM, 75 pA, 400 ms) was “potently and reversibly blocked”. In the assay with small DRG neurons (300 pA, 1 ms pulse), the “effect on solitary evoked spike” value is “reversibly prevent the generation of the single action potential”. Moreover, the “frequency of spontaneous EPSCs” value in assay [1] (5 μM, −70 mV holding potential) was “up to 49±5 % of control”. In addition, in assay [1] (≧10 μM), the “occurrence of spontaneous EPSCs” value is listed as “totally suppresses”.
